According to patent US20240067668A1, “HETEROARYL DERIVATIVE COMPOUND AND USE THEREOF” (VORONOI INC., priority 2020, published 2024):

How the values were obtained:
EGFR Del19/T790M/C797S = EGFR Del19/T790M/C797S (Homo sapiens, UniProt P00533, C797S/T790M, form not given); assay: Enzyme IC50, EGFR Del19/T790M/C797S; type: biochemical
[1] = tested on: BaF3-EGFR (Del19/T790M/C797S) cells; assay: Inhibitory activity on Ba/F3 cell proliferation (CellTiter-Glo, 72 hours); type: cell-based; details: Ba/F3 cells expressing EGFR Del19/T790M/C797S
Experimental: (§1) The following experiments were performed to evaluate the inhibitory activity of the compound represented by Chemical Formula 1 according to the present invention on the proliferation of Ba/F3 cells expressing EGFR mutants.
(§2) BaF3-EGFR (WT) and BaF3-EGFR (Del19/T790M/C797S) cells were seeded in a clear bottom white 96-well plate at a density of 3×10^3/100 μl/well, and then 0.5 μl/well of the culture medium, containing the compounds at 12 concentrations (0.00001-2 mM) serially diluted in 3 folds and the DMSO control, was added to a final concentration of 0.00005-10 μM, followed by culturing in a 37° C. CO2 incubator for 72 hours. After 72 hours, the plates treated with the compounds were taken out, treated with 100 μl/well of CellTiter-Glo® 2.0 Assay (Promega) solution, and mixed well. After mixing well at room temperature for about 10 minutes, […] was measured using a microplate reader. As to Data, GI50 (μM) values were calculated using GraphPad Prism 8.3.0 (GraphPad software Inc., San Diego) as percentages in proportion to vehicle-based treated cells. The result values were calculated as a cell growth rate (%) compared to the control group. A graph was created using the GraphPad Prism version 5.0 program, and GI50 (μM) values were calculated.

BaF3-EGFR (WT) cells = assay: as above; type: cell-based; details: Ba/F3 cells expressing EGFR WT
Experimental: as §1, §2

Sequence of EGFR Del19/T790M/C797S (P00533 25-1210 T790M/C797S, form open): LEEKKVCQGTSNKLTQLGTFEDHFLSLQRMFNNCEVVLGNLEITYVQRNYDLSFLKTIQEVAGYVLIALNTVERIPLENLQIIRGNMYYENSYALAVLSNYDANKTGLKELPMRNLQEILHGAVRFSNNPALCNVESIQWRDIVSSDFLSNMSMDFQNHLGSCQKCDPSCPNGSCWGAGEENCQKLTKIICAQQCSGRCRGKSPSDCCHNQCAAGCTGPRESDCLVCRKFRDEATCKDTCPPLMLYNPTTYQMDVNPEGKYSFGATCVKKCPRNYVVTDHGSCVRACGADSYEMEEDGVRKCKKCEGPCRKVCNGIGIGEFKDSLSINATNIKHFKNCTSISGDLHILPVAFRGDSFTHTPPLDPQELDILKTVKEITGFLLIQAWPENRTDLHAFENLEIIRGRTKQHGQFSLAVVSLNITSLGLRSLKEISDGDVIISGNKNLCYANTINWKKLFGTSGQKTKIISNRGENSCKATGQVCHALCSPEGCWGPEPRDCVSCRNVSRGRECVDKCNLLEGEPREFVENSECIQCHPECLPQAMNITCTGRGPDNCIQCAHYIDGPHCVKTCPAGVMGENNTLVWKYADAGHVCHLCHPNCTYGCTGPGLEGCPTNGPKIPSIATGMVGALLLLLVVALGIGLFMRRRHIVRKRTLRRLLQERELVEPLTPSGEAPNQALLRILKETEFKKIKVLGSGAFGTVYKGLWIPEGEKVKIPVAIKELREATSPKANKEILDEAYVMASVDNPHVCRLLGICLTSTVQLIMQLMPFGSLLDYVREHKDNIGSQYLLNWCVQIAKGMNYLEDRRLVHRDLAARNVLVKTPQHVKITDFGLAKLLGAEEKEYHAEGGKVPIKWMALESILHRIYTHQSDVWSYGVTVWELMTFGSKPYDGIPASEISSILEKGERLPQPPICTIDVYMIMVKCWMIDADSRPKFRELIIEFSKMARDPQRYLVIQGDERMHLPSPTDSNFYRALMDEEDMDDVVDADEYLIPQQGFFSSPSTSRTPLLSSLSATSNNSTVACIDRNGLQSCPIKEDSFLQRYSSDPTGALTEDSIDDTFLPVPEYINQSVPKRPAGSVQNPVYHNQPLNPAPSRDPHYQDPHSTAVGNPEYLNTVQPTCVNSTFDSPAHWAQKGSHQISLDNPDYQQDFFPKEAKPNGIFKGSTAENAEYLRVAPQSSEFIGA

| SMILES | IC50 (EGFR Del19/T790M/C797S) | GI50 [1] | GI50 (BaF3-EGFR (WT) cells) |
| --- | --- | --- | --- |
| COc1cc(N2CCN(C)CC2)c(-c2ccsc2)cc1Nc1nc(Nc2ccc3nccnc3c2P(C)(C)=O)c2cc[nH]c2n1 [Example 76, (6-((2-((2-methoxy-4-(4-methylpiperazin-1-yl)-5-(thiophen-3-yl)phenyl)amino)-7H-pyrrolo[2,3-d]pyrimidin-4-yl)amino)quinoxalin-5-yl)dimethyl-phosphine oxide] | ≤ 0.05 µM | > 0.1 µM | > 0.1 µM |
| CN1CCN(C2CCN(c3cc(OCC(F)(F)F)c(Nc4nc(Nc5ccc6nccnc6c5P(C)(C)=O)c5cc[nH]c5n4)cc3-c3cnn(C)c3)CC2)CC1 [Example 4, dimethyl (6-((2-((5-(1-methyl-1H-pyrazol-4-yl)-4-(4-(4-methylpiperazin-1-yl)piperidin-1-yl)-2-(2,2,2-trifluoroethoxy)phenyl)amino)-7H-pyrrolo[2,3-d]pyrimidin-4-yl)amino)quinoxalin-5-yl) phosphine oxide] | ≤ 0.05 µM | 0.05 to 0.1 µM | > 0.1 µM |
| Cc1cc(Nc2nc(Nc3ccc4nccnc4c3P(C)(C)=O)c3cc[nH]c3n2)c(OCC(F)(F)F)cc1N1CCN(C)CC1 [Example 9, dimethyl (6-((2-((5-methyl-4-(4-methylpiperazin-1-yl)-2-(2,2,2-trifluoroethoxy)phenyl)amino)-7H-pyrrolo[2,3-d]pyrimidin-4-yl)amino)quinoxalin-5-yl)phosphine oxide] | ≤ 0.05 µM | > 0.1 µM | > 0.1 µM |
| COc1cc(N2CCC(N3CCN(C)CC3)CC2)c(C)cc1Nc1nc(Nc2cnc3ccccc3c2P(C)(C)=O)c2cc[nH]c2n1 [Example 90, (3-((2-((2-methoxy-5-methyl-4-(4-(4-methylpiperazin-1-yl)piperidin-1-yl)phenyl)amino)-7H-pyrrolo[2,3-d]pyrimidin-4-yl)amino)quinolin-4-yl)dimethyl-phosphine oxide] |  | > 0.1 µM | > 0.1 µM |
| CN1CCN(c2ccc(Nc3nc(Nc4ccc5nccnc5c4P(C)(C)=O)c4cc[nH]c4n3)c(OCC(F)(F)F)c2)CC1 [Example 7, dimethyl (6-((2-((4-(4-methylpiperazin-1-yl)-2-(2,2,2-trifluoroethoxy)phenyl)amino)-7H-pyrrolo[2,3-d]pyrimidin-4-yl)amino)quinoxalin-5-yl)phosphine oxide] |  | > 0.1 µM | > 0.1 µM |
| Cc1cc(Nc2nc(Nc3ccc4nccnc4c3P(C)(C)=O)c3cc[nH]c3n2)c(OCC(F)(F)F)cc1N1CCOCC1 [Example 11, dimethyl (6-((2-((5-methyl-4-morpholino-2-(2,2,2-trifluoroethoxy)phenyl)amino)-7H-pyrrolo[2,3-d]pyrimidin-4-yl)amino)quinoxalin-5-yl) phosphineoxide] |  | > 0.1 µM | > 0.1 µM |
| COc1cc(N2CCN(C)CC2)c(-c2cnn(C(C)C)c2)cc1Nc1nc(Nc2ccc3nccnc3c2P(C)(C)=O)c2cc[nH]c2n1 [Example 49, (6-((2-((5-(1-isopropyl-1H-pyrazol-4-yl)-2-methoxy-4-(4-methyl-piperazin-1-yl)phenyl)amino)-7H-pyrrolo[2,3-d]pyrimidin-4-yl)amino)quinoxalin-5-yl)dimethyl-phosphine oxide] |  | > 0.1 µM | > 0.1 µM |
| COc1cc(N2CCC(N3CCN(C)CC3)CC2)ccc1Nc1cc(Nc2ccc3nccnc3c2P(C)(C)=O)c2cc[nH]c2n1 [Example 64, (6-((6-((2-methoxy-4-(4-(4-methylpiperazin-1-yl)piperidin-1-yl)phenyl)amino)-1H-pyrrolo[2,3-b]pyridin-4-yl)amino)quinoxalin-5-yl)dimethyl-phosphine oxide] |  | > 0.1 µM | > 0.1 µM |
| CN1CCN(c2cc(OCC(F)(F)F)c(Nc3nc(Nc4cnc5ccccc5c4P(C)(C)=O)c4cc[nH]c4n3)cc2-c2cnn(C)c2)CC1 [Example 14, dimethyl (3-((2-((5-(1-methyl-1H-pyrazol-4-yl)-4-(4-methylpiperazin-1-yl)-2-(2,2,2-trifluoroethoxy)phenyl)amino)-7H-pyrrolo[2,3-d]pyrimidin-4-yl)amino)quinolin-4-yl)phosphine oxide] |  | > 0.1 µM | > 0.1 µM |
| Cc1cc(Nc2nc(Nc3ccc4nccnc4c3P(C)(C)=O)c3cc[nH]c3n2)c(OCC(F)(F)F)cc1N1CCC(N2CCOCC2)CC1 [Example 12, dimethyl (6-((2-((5-methyl-4-(4-morpholino-piperidin-1-yl)-2-(2,2,2-trifluoroethoxy)phenyl)amino)-7H-pyrrolo[2,3-d]pyrimidin-4-yl)amino)quinoxalin-5-yl) phosphineoxide] |  | > 0.1 µM | > 0.1 µM |
| COc1cc(N2CCN(C)CC2)c(-c2cnn(C)c2)cc1Nc1nc(Nc2ccc3nccnc3c2P(C)(C)=O)c2c(C(F)(F)F)c[nH]c2n1 [Example 53, (6-((2-((2-methoxy-5-(1-methyl-1H-pyrazol-4-yl)-4-(4-methyl-piperazin-1-yl)phenyl)amino)-5-(trifluoro-methyl)-7H-pyrrolo[2,3-d]pyrimidin-4-yl)amino)quinoxalin-5-yl)dimethyl-phosphine oxide] |  | > 0.1 µM | > 0.1 µM |
| COc1cc(N2CCC(N3CCN(C)CC3)CC2)c(F)cc1Nc1nc(Nc2ccc3nccnc3c2P(C)(C)=O)c2cc[nH]c2n1 [Example 66, (6-((2-((5-fluoro-2-methoxy-4-(4-(4-methylpiperazin-1-yl)piperidin-1-yl)phenyl)amino)-7H-pyrrolo[2,3-d]pyrimidin-4-yl)amino)quinoxalin-5-yl)dimethyl-phosphine oxide] |  | > 0.1 µM | > 0.1 µM |
| COc1cc(N2CCC(N3CCN(C)CC3)CC2)cnc1Nc1cc(Nc2ccc3nccnc3c2P(C)(C)=O)c2cc[nH]c2n1 [Example 65, (6-((6-((3-methoxy-5-(4-(4-methylpiperazin-1-yl)piperidin-1-yl)pyridin-2-yl)amino)-1H-pyrrolo[2,3-b]pyridin-4-yl)amino)quinoxalin-5-yl)dimethyl-phosphine oxide] |  | > 0.1 µM | > 0.1 µM |

Continued, values first:

| IC50 (EGFR Del19/T790M/C797S) | GI50 [1] | GI50 (BaF3-EGFR (WT) cells) | SMILES |
| --- | --- | --- | --- |
| ≤ 0.05 µM | ≤ 0.05 µM | > 0.1 µM | COc1cc(N2C[C@H]3C[C@@H]2CO3)c(-c2cnn(C)c2)cc1Nc1nc(Nc2ccc3nccnc3c2P(C)(C)=O)c2cc[nH]c2n1 [Example 27] |
| ≤ 0.05 µM | ≤ 0.05 µM | 0.05 to 0.1 µM | COc1cc(N2CCN3CCCC[C@@H]3C2)c(-c2cnn(C)c2)cc1Nc1nc(Nc2ccc3nccnc3c2P(C)(C)=O)c2cc[nH]c2n1 [Example 43, (R)-(6-((2-((2-methoxy-5-(1-methyl-1H-pyrazol-4-yl)-4-(octahydro-2H-pyrido[1,2-alpyrazin)-2-yl)phenyl)amino)-7H-pyrrolo[2,3-d]pyrimidin-4-yl)amino)quinoxalin-5-yl)dimethyl-phosphine oxide] |
| ≤ 0.05 µM | ≤ 0.05 µM | > 0.1 µM | COc1ccc(-c2cnn(C)c2)cc1Nc1nc(Nc2ccc3nccnc3c2P(C)(C)=O)c2cc[nH]c2n1 [Example 28, (6-((2-((2-methoxy-5-(1-methyl-1H-pyrazol-4-yl)phenyl)amino)-7H-pyrrolo[2,3-d]pyrimidin-4-yl)amino)quinoxalin-5-yl)dimethyl-phosphine oxide] |
|  | ≤ 0.05 µM | > 0.1 µM | C[C@@H]1CN(c2cc(OCC(F)(F)F)c(Nc3nc(Nc4ccc5nccnc5c4P(C)(C)=O)c4cc[nH]c4n3)cc2-c2cnn(C)c2)C[C@H](C)O1 [Example 10, (6-((2-((4-((2R, 6S)-2,6-dimethyl-morpholino)-5-(1-methyl-1H-pyrazol-4-yl)-2-(2,2,2-trifluoroethoxy)phenyl)amino)-7H-pyrrolo[2,3-d]pyrimidin-4-yl)amino)quinoxalin-5-yl)dimethyl phosphine oxide] |
|  | ≤ 0.05 µM | > 0.1 µM | CN1CCN(c2c(-c3cnn(C)c3)cc(Nc3nc(Nc4ccc5nccnc5c4P(C)(C)=O)c4cc[nH]c4n3)c3c2OCCO3)CC1 [Example 130, dimethyl (6-((2-((7-(1-methyl-1H-pyrazol-4-yl)-8-(4-methylpiperazin-1-yl)-2,3-dihydrobenzo [b][1,4]dioxin-5-yl)amino)-7H-pyrrolo[2,3-d]pyrimidin-4-yl)amino)quinoxalin-5-yl)phosphine oxide] |
|  | ≤ 0.05 µM | > 0.1 µM | COc1cc(N2CCN(C(C)(C)CF)CC2)c(-c2cnn(C)c2)cc1Nc1nc(Nc2ccc3nccnc3c2P(C)(C)=O)c2cc[nH]c2n1 [Example 109, (6-((2-((4-(4-(1-fluoro-2-methylpropan-2-yl)piperazin-1-yl)-2-methoxy-5-(1-methyl-1H-pyrazol-4-yl)phenyl)amino)-7H-pyrrolo[2,3-d]pyrimidin-4-yl)amino)quinoxalin-5-yl)dimethyl-phosphine oxide] |
|  | ≤ 0.05 µM | 0.05 to 0.1 µM | Cn1cc(-c2cc(Nc3nc(Nc4ccc5nccnc5c4P(C)(C)=O)c4cc[nH]c4n3)ccc2N2CCC(N3CCOCC3)CC2)cn1 [Example 40, dimethyl (6-((2-((3-(1-methyl-1H-pyrazol-4-yl)-4-(4-morpholino-piperidin-1-yl)phenyl)amino)-7H-pyrrolo[2,3-d]pyrimidin-4-yl)amino)quinoxalin-5-yl) phosphinexide] |
